What was measured:
[1] = system: wild-type strains of the enterobacteria tested; assay: Antibiotic concentration range on CPS ID 3 chromogenic agar: inhibition of wild-type strains; type: cell-based; conditions: CPS ID 3 agar, 37° C., aerobic atmosphere
Text: (§1) In the context of the manipulations carried out, for evaluating the activity of the antibiotics active on gram-negative bacilli, various species of enterobacteria (Escherichia coli, Enterobacter aerogenes, Klebsiella pneumoniae, Serratia marcescens, Proteus mirabilis) and of nonfermenting gram-negative bacilli (Pseudomonas aeruginosa), capable of producing ESBLs, were used. ESBL-positive strains, high level cephalosporinase-producing strains (HL Case) and wild-type strains are compared in the trials.
(§2) The medium used was a CPS ID3 medium (reference 43541) also comprising at least one antibiotic and at least one resistance mechanism inhibitor.
(§3) Osmosed water is added and the whole is homogenized and melted in a waterbath at 100° C. The base medium is dispensed into flasks, the number of which corresponds to the total number of media to be tested during the process. The flasks are then autoclaved for 15 min at 121° C. The media are brought back to and kept molten at 55±3° C. in a waterbath, in order to sterilely add the thermolabile additives (sterilized beforehand by filtration through 0.22 μm). The media are then poured into biplates 90 mm in diameter (i.e. approximately 9.5 ml/half-plate), and left on a flat surface so that they can set. The surface of the agars is then dried under a laminar flow hood for 30 min.
(§4) An inoculum of 0.5 McF is prepared, in physiological saline, from 24-hour precultures at 36° C.±2° C. in an aerobic atmosphere on TSA medium, and then 1 μl of this suspension is transferred into 5 ml of physiological saline. In order to obtain a sufficient number of isolated colonies, a range of inocula made it possible to determine that the optimal amount of bacteria to be inoculated was from 10^3 to 10^4 CFU/ml. The inoculation is carried out directly on the two half-agars using a sterile swab. The cultures are then incubated at 37° C. in an aerobic atmosphere.
(§5) 4. Reading of media: the readings are carried out at 18 hours (±30 min), 24 h (±1h) and 48 h (±4 h). The density and the size of the colonies, and the appearance, the color and the coloration intensities of the mass and of the isolated colonies were observed, according to the following reading scales 1 to 3: 0: no growth; 0.1: trace of growth; 0.25: colonies of diameter<0.5 mm; 0.5: colonies of 0.5 mm in diameter; 0.75: 0.5 mm<diameter<1 mm; 1: colonies of 1 mm in diameter; 1.25: 1 mm<diameter<1.5 mm; 1.5: colonies 1.5 mm in diameter; 2: colonies 2 mm in diameter; 3: colonies of diameter>2 mm.
(§6) The 5 antibiotics recommended by the NCCLS (National Committee for Clinical Laboratory Standards) were tested. For each product tested, a range was prepared in order to determine the concentrations that make it possible to inhibit the wild-type strains of the enterobacteria tested, without affecting the growth of the ESBL-positive strains or the HL Case-positive strains.
(§7) The low value corresponds to the minimum concentration of the antibiotic required to inhibit the wild-type strains of the enterobacteria tested. The high value corresponds to the maximum concentration of the antibiotic that can be used without affecting the growth of the ESBL-positive strains tested.

[2] = system: ESBL-positive strains; assay: Antibiotic concentration range on CPS ID 3 chromogenic agar: growth of ESBL-positive strains; type: cell-based; conditions: CPS ID 3 agar, 37° C., aerobic atmosphere
Text: as §1, §2, §3, §4, §5, §6, §7

[3] = system: ESBL-positive enterobacterial strains; type: cell-based, enterobacteria; conditions: in the presence of cefotaxime
Procedure: 4. Reading of media: the readings are carried out at 18 hours (±30 min), 24 h (±1h) and 48 h (±4 h). The density and the size of the colonies, and the appearance, the color and the coloration intensities of the mass and of the isolated colonies were observed, according to the following reading scales 1 to 3: 0: no growth; 0.1: trace of growth; 0.25: colonies of diameter<0.5 mm; 0.5: colonies of 0.5 mm in diameter; 0.75: 0.5 mm<diameter<1 mm; 1: colonies of 1 mm in diameter; 1.25: 1 mm<diameter<1.5 mm; 1.5: colonies 1.5 mm in diameter; 2: colonies 2 mm in diameter; 3: colonies of diameter>2 mm. […]

[4] = system: wild-type strains of P. aeruginosa; assay: Antibiotic concentration range on CPS ID 3: complete inhibition of wild-type P. aeruginosa; type: cell-based, Pseudomonas aeruginosa; conditions: CPS ID 3 agar
Text: as §1
Osmosed water is added and the whole is homogenized and melted in a waterbath at 100° C. The base medium is dispensed into flasks, the number of which corresponds to the total number of media to be tested during the process. The flasks are then autoclaved for 15 min at 121° C. […]
as §5, with “mm. […]” for “mm.”

[5] = system: E. casseliflavus and E. gallinarum strains (natural resistances); assay: Example 4: Columbia chromogenic media with vancomycin, naturally resistant enterococci; type: cell-based, Enterococcus casseliflavus, Enterococcus gallinarum; conditions: vancomycin 8 mg/l
Procedure: In the context of the manipulations carried out, for evaluating the activity of antibiotics active on enterococci, various species of Enterococcus (Enterococccus faecalis, Enterococcus faecium, Enterococcus casseliflavus, Enterococcus gallinarum,) were used. In the assays, strains resistant to glycopeptides (VRE) and wild-type strains are compared.
The media used were a Columbia medium (51026), also comprising: • 5-bromo-4-chloro-3-indolyl-N-methyl-α-D-glucopyranoside (GreenA-α-Glu) at 150 mg/l, • 6-chloro-3-indolyl-β-glucopyranoside (Rose-b-Glu [Pink-b-Glu]) at 200 mg/l, or: • 5-bromo-4-chloro-3-indolyl-N-methyl-α-D-glucopyranoside (GreenA-α-Glu) at 150 mg/l, • alizarine-β-galactopyranoside at 50 mg/l • and vancomycin at 8 mg/l, • an amphotericin B at 4 mg/l, • and colistine at 2 mg/l, • and aztreonam at 32 mg/l.
as §3, with “two basic media are” for “base medium is”, “flasks.” for “flasks, the number of which corresponds to the total number of media to be tested during the process.”, “plates” for “biplates”, “diameter” for “diameter (i.e. approximately 9.5 ml/half-plate),”, “min. […]” for “min.”

Row | Compound | Low value: minimum concentration of the antibiotic required to inhibit the wild-type strains of the enterobacteria tested [1] [mg/L] | High value: maximum concentration of the antibiotic that can be used without affecting the growth of the ESBL-positive strains tested [2] [mg/L] | also measured
1 | CO/N=C(\C(=O)N[C@@H]1C(=O)N2C(C(=O)O)=C(CSc3nc(=O)c(=O)[nH]n3C)CS[C@H]12)c1csc(N)n1 [Ceftriaxone, ceftriaxone] | 1 | 2.5 | –
2 | O=C(O)[C@H]1/C(=C/CO)O[C@@H]2CC(=O)N21 [clavulanic acid] | – | – | relative effectiveness among the β-lactamase inhibitors (BLI) tested [3]: most effective BLI
3 | CC(C)(O/N=C(\C(=O)N[C@@H]1C(=O)N2C(C(=O)[O-])=C(C[n+]3ccccc3)CS[C@H]12)c1csc(N)n1)C(=O)O [Ceftazidime, ceftazidime] | 2 | 2.5 | minimum concentration for complete inhibition of wild-type strains of P. aeruginosa (limiting value) [4]: 1.5 mg/L
4 | COCC1=C(C(=O)O)N2C(=O)[C@@H](NC(=O)/C(=N\OC)c3csc(N)n3)[C@H]2SC1 [Cefpodoxime, cefpodoxime] | 2 | 10 | –
5 | CO/N=C(\C(=O)N[C@@H]1C(=O)N2C(C(=O)O)=C(COC(C)=O)CS[C@H]12)c1csc(N)n1 [Cefotaxime, cefotaxime] | 1 | 2 | –
6 | C[C@H]1[C@H](NC(=O)/C(=N\OC(C)(C)C(=O)O)c2csc(N)n2)C(=O)N1S(=O)(=O)O [Aztreonam, aztreonam] | 1 | 1.5 | –
7 | CN[C@H](CC(C)C)C(=O)N[C@H]1C(=O)N[C@@H](CC(N)=O)C(=O)N[C@H]2C(=O)N[C@H]3C(=O)N[C@H](C(=O)N[C@H](C(=O)O)c4cc(O)cc(O)c4-c4cc3ccc4O)[C@H](O)c3ccc(c(Cl)c3)Oc3cc2cc(c3O[C@@H]2O[C@H](CO)[C@@H](O)[C@H](O)[C@H]2O[C@H]2C[C@](C)(N)[C@H](O)[C@H](C)O2)Oc2ccc(cc2Cl)[C@H]1O [vancomycin] | – | – | effect on E. casseliflavus and E. gallinarum strains ([5]; medium with α-glucosidase and β-galactosidase substrates): inhibited; effect on E. casseliflavus and E. gallinarum strains ([5]; medium with α-glucosidase and β-glucosidase substrates): inhibited
